Target: human A2AR (Homo sapiens, UniProt P29274)
Assay: radioligand displacement, [3H]ZM241385
Assay type: binding
Conditions: […] [3H]ZMA; […] Tris/HCl pH […]; […] min; CHO K1 membranes

Chain of human A2AR (P29274 whole entry): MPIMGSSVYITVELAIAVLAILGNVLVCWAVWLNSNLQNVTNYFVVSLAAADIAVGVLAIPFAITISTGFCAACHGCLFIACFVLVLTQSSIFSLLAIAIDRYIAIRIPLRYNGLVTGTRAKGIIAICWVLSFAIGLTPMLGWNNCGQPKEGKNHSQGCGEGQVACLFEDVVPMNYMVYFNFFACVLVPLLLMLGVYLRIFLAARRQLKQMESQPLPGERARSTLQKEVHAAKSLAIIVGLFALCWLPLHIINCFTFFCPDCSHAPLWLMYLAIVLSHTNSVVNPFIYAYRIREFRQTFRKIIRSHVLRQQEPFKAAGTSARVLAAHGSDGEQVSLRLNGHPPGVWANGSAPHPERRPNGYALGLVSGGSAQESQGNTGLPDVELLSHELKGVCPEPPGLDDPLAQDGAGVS

Ki: 310 ± 23.4 nM
Compound: N#Cc1c(NC(=O)Cn2c(=O)oc3ccccc32)oc(-c2ccccc2)c1-c1ccccc1 [JG-10]

From publication doi:10.1101/2023.03.31.535043v1 (biorxiv, 2023)
